Data on 64 molecules can be found in patent US12599583B2, “Small molecule GRB2 stabilizers for Ras map kinase inhibition” (Board of Regents, The University of Texas System, priority 2019, dated 2026).

The test system of data set [1] is OVCAR5 cells. Briefly: nuclear fragmentation of OVCAR5 cells, high-throughput assay. The data set is classed as cell-based. Conditions: for quantitation of fragmented nucleus among Series-1 GRB001 analogues: OVCAR5 cells. The text has this:
The intensity of the red color represents nuclear condensation indicative of apoptotic cells.

Data set [2] has as its target T1, GRB2 (Homo sapiens, UniProt P62993). In words: fluorescence anisotropy assay measuring GRB2 dimerization. The data set is classed as biochemical. Conditions: 100 nM Atto488 labeled GRB2; NB = No Binding (inability to induce GRB2 dimerization); read-out: EC50 anisotropy, compound induced GRB2 dimerization. On the procedure:
FIGS. 16A & 16B show fluorescence anisotropy assay data measuring GRB2 dimerization. 100 nM Atto488 labeled GRB2, which is below its dimer forming concentration, was used to identify compounds that induce dimerization. […] Note that NB represent compounds inability to induce GRB2 dimerization.
GRB2 dimerization was measured by fluorescence anisotropy assay. 100 nM Atto488 labeled GRB2, which is below its dimer forming concentration, was used to identify compounds that induce dimerization. […] Note that NB represent compounds inability to induce GRB2 dimerization.
A general note: In fluorescence polarisation assays a small probe gives low polarisation when free and higher when bound to something large.

Data set [3] deals with T1, GRB2. In words: ITC binding to GRB2. Particulars: read-out: Kd, ITC binding isotherm. The source says: Validation of in vitro binding of GRB001 to GRB2 with ITC as an alternative technique. […] GRB001 is able to bind GRB2 in two different conformations as reflected by the energy signature (inset).
FIGS. 14A-14C show ITC binding isotherm of GRB001 binding to GRB2 as in FIG. 4 (FIG. 14A).

A short description of data set [4]: Sulforhodamine B (SRB) cytotoxicity in MDA-MB-231 cells. The data set is classed as cell-based. Conditions: human. The method, then: (§1) Titrating concentrations of each compounds were used to treat cells for 72 hours. The data was normalized against 100% survival at the lowest inhibitor concentration. Graphs for IC50 were fitted to the four-parameter logistic equation using Prism8. Error bars show the percent coefficient of variation. Equivalent concentrations of DMSO were used as a negative control.
(§2) SRB cytotoxicity analysis was also performed using GRB152 in HEK293T and MDA-MB-231 cells. Cells were exposed to various concentrations of compound for 72 h before viability measurements.

Data set [5] in a line: Sulforhodamine B (SRB) cytotoxicity in HEK293T cells. In kind it is cell-based. Conditions: human. The method, then:
as §1, §2

T1 sequence (P62993 whole entry): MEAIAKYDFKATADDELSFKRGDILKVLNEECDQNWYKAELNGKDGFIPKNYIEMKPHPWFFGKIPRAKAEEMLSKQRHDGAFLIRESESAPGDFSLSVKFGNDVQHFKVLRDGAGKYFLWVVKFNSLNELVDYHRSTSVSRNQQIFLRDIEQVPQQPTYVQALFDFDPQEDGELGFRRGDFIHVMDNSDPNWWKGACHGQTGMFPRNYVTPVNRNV

Turning to `O=C1Cc2cc(NC(=O)Nc3ccc(Cl)c(Cl)c3)ccc2N1` [GRB002], the “nuclear fragmentation of OVCAR5 cells” value in data set [1] (500 nM compound) is recorded as “inducing nuclear fragmentation”. Also, in data set [1], the “quantitation of fragmented nucleus among Series-1 GRB001 analogues” value is on record as “highest level of fragmented nucleus”.

Take `O=C1Cc2cc(NC(=O)Nc3cccs3)ccc2N1` [GRB003]: the EC50 (commonly the concentration needed to bring the measured effect to its halfway point) in data set [2] was 9.7 µM.

Consider `O=C1Cc2cc(NC(=O)Nc3cccc(Cl)c3)ccc2N1` [GRB004], for which, in data set [2], the EC50 was 26 µM.

Turning to `O=C1Cc2cc(NC(=O)Nc3ccc4c(c3)OCO4)ccc2N1` [GRB005], the “quantitation of fragmented nucleus among Series-1 GRB001 analogues” value in data set [1] is listed as “highest level of fragmented nucleus”.

With `CN1C(=O)Cc2cc(NC(=O)Nc3ccc(F)cc3)ccc21` [GRB006], the EC50 in data set [2] worked out at 2.7 µM.

For the molecule `COc1cccc(NC(=O)Nc2ccc3c(c2)CC(=O)N3C)c1` [GRB007], in data set [2], the EC50 was found to be 15.7 µM.

Turning to `CCN1C(=O)Cc2cc(NC(=O)Nc3ccc(Cl)c(Cl)c3)ccc21` [GRB009], the EC50 in data set [2] was found to be 5.5 µM.

Turning to `CCN1C(=O)Cc2cc(NC(=O)Nc3ccc(Cl)cc3)ccc21` [GRB010], the EC50 in data set [2] came to 3.9 µM.

Consider `COc1ccccc1NC(=O)Nc1ccc2c(c1)CC(=O)N2` [GRB012], for which the EC50 in data set [2] came out at 4.5 µM.

For the molecule `Cc1cc(Br)ccc1NC(=O)Nc1ccc2[nH]c(=O)[nH]c2c1` [GRB020], in data set [2], the EC50 was 0.75 µM.

On to `Cc1ccc(NC(=O)Nc2ccc3[nH]c(=O)[nH]c3c2)cc1` [GRB021], for which the EC50 in data set [2] was 1 µM.

For `O=C(Nc1ccc(Cl)c(Cl)c1)Nc1ccc2[nH]c(=O)[nH]c2c1` [GRB022], in data set [2], the EC50 came out at 2.1 µM.

Turning to `O=C(Nc1cccc(F)c1)Nc1ccc2[nH]c(=O)[nH]c2c1` [GRB023], in data set [2], the EC50 was found to be 3.1 µM.

On to `O=C(Nc1cc(F)cc(F)c1)Nc1ccc2[nH]c(=O)[nH]c2c1` [GRB024], for which the EC50 in data set [2] is 4.6 µM.

Regarding `N#Cc1cccc(NC(=O)Nc2ccc3[nH]c(=O)[nH]c3c2)c1` [GRB025], in data set [2], the EC50 was 6 µM.

Turning to `Cc1ccc(NC(=O)Nc2ccc3[nH]c(=O)[nH]c3c2)c(C)c1` [GRB026], the EC50 in data set [2] is 8.2 µM.

On to `CCOC(=O)CNC(=O)Nc1ccc2[nH]c(=O)[nH]c2c1` [GRB027], for which the EC50 in data set [2] turned out to be 10.1 µM.

On to `O=C(Nc1cc(Cl)cc(Cl)c1)Nc1ccc2[nH]c(=O)[nH]c2c1` [GRB028], for which the EC50 in data set [2] came to 10.2 µM.

For the molecule `Cc1ccc(NC(=O)Nc2ccc3[nH]c(=O)[nH]c3c2)c(C)c1` [GRB029], the concentration for a half-maximal effect (EC50) in data set [2] stood at 16.3 µM.

Take `Cc1cccc(NC(=O)Nc2ccc3[nH]c(=O)[nH]c3c2)c1C` [GRB030]: the EC50 in data set [2] turned out to be 37.3 µM.

As to `O=C(Nc1ccc(F)c(Cl)c1)Nc1ccc2[nH]c(=O)[nH]c2c1` [GRB031], in data set [2], the EC50 came to 40.3 µM.

Take `COc1cc(NC(=O)Nc2ccc3[nH]c(=O)[nH]c3c2)cc(OC)c1OC` [GRB032]: the EC50 in data set [2] was over 100 µM.

As to `COC(=O)c1cccc(NC(=O)Nc2ccc3[nH]c(=O)[nH]c3c2)c1` [GRB033], the EC50 in data set [2] is over 100 µM.

For `COc1cccc(NC(=O)Nc2ccc3[nH]c(=O)[nH]c3c2)c1` [GRB034], the half-maximal effective concentration (EC50) in data set [2] was 264 µM.

Consider `O=C(Nc1cccc(C(F)(F)F)c1)Nc1ccc2[nH]c(=O)[nH]c2c1` [GRB046], for which the half-maximal effective concentration (EC50) in data set [2] was 2 µM.

As for `O=C(Nc1ccc(F)cc1)Nc1ccc2[nH]c(=O)[nH]c2c1` [GRB047], the EC50 in data set [2] worked out at 9.7 µM.

Regarding `O=c1[nH]c2ccc(NC(=S)Nc3ccc(Cl)c(Cl)c3)cc2[nH]1` [GRB048], in data set [2], the EC50 was 8.3 µM.

Turning to `O=C(NCc1ccccc1)Nc1ccc2[nH]c(=O)[nH]c2c1` [GRB049], the concentration for a half-maximal effect (EC50) in data set [2] worked out at 11.5 µM.

As to `O=c1[nH]c2ccc(NC(=S)NCCN3CCOCC3)cc2[nH]1` [GRB050], the EC50 in data set [2] came out at 56 µM.

For the molecule `COc1ccccc1NC(=O)Nc1ccc2[nH]c(=O)[nH]c2c1` [GRB051], in data set [2], the EC50 was over 100 µM.

With `Cc1ccccc1NC(=O)Nc1ccc2[nH]c(S)nc2c1` [GRB058], in data set [2], the EC50 was determined as 2 µM.

In the case of `O=C(Nc1cc(F)cc(F)c1)Nc1ccc2[nH]c(S)nc2c1` [GRB060], in data set [2], the EC50 is 2.4 µM.

Turning to `COc1cccc(NC(=O)Nc2ccc3[nH]c(S)nc3c2)c1` [GRB061], in data set [2], the 50% effective concentration (EC50) was determined as 129 µM.

Turning to `Cc1cc(C)cc(NC(=O)Nc2ccc3[nH]c(S)nc3c2)c1` [GRB062], the EC50 in data set [2] turned out to be 78 µM.

Turning to `N#Cc1ccc(NC(=O)Nc2ccc3[nH]c(S)nc3c2)cc1` [GRB063], the EC50 in data set [2] was 124 µM.

Consider `O=C(Nc1ccccc1)Nc1ccc2[nH]c(S)nc2c1` [GRB064], for which the EC50 in data set [2] was found to be 116 µM.

Take `O=C(Nc1ccccc1)Nc1ccc2[nH]c(SCc3ccc(F)cc3)nc2c1` [GRB065]: in data set [2], the EC50 stood at 350 µM.

For the molecule `O=C(NCc1ccc(F)cc1)Nc1ccc2[nH]c(SCc3ccc(F)cc3)nc2c1` [GRB066], the EC50 in data set [2] is 246 µM.

Regarding `Cc1cc(C)cc(NC(=O)Nc2ccc3[nH]c(SCc4ccc(F)cc4)nc3c2)c1` [GRB067], the EC50 in data set [2] was 48 µM.

For `O=C(Nc1ccc2ccccc2c1)Nc1ccc2[nH]c(SCc3ccc(F)cc3)nc2c1` [GRB070], the EC50 in data set [2] was found to be 128 µM.

Turning to `O=C(Nc1cc(F)cc(F)c1)Nc1ccc2[nH]c(SCc3ccc(F)cc3)nc2c1` [GRB071], in data set [2], the concentration for a half-maximal effect (EC50) was 225 µM.

Consider `CC(=O)c1cccc(NC(=O)Nc2ccc3[nH]c(SCc4ccc(F)cc4)nc3c2)c1` [GRB073], for which the EC50 in data set [2] stood at 15 µM.

For `O=C(Cc1ccc(F)cc1)Nc1ccc2[nH]c(S)nc2c1` [GRB074], in data set [2], the EC50 was found to be 205 µM.

In the case of `O=C(Nc1cccc(F)c1)Nc1ccc2[nH]c(SCc3ccc(F)cc3)nc2c1` [GRB075], the EC50 in data set [2] is 23 µM.

Regarding `COC(=O)c1cccc(NC(=O)c2ccc3[nH]c(S)nc3c2)c1` [GRB076], the EC50 in data set [2] came to 62 µM.

`CSc1nc2cc(C(=O)Nc3cccc(F)c3)ccc2[nH]1` [GRB077]: the EC50 in data set [2] was found to be 502 µM.

On to `Cc1ccc(S(=O)(=O)Nc2ccc3[nH]c(S)nc3c2)cc1` [GRB078], for which the EC50 in data set [2] was 436 µM.

In the case of `O=C1Cc2cc(NC(=O)Nc3cc(F)cc(F)c3)ccc2N1` [GRB085], the half-maximal effective concentration (EC50) in data set [2] was 1.1 µM.

Regarding `O=C1Cc2cc(NC(=S)Nc3ccc(Cl)c(Cl)c3)ccc2N1` [GRB086], in data set [2], the EC50 turned out to be 1.5 µM.

For the molecule `O=C1Cc2cc(NC(=O)Nc3cccc(Br)c3)ccc2N1` [GRB087], the EC50 in data set [2] was determined as 4.6 µM.

For the molecule `O=C1Cc2cc(NC(=O)Nc3ccc(F)c(Cl)c3)ccc2N1` [GRB088], the EC50 in data set [2] is 8.3 µM.

On to `Cc1cccc(NC(=O)Nc2ccc3c(c2)CC(=O)N3)c1C` [GRB089], for which the EC50 in data set [2] came to 9.1 µM.

For the molecule `Cc1cc(NC(=O)Nc2ccc3c(c2)CC(=O)N3)ccc1Cl` [GRB090], the EC50 in data set [2] is 13 µM.

As to `O=C1Cc2cc(NC(=O)NC(=O)c3ccccc3)ccc2N1` [GRB091], the EC50 in data set [2] is 13.3 µM.

Take `O=C1Cc2cc(NC(=O)Nc3cc(Cl)cc(Cl)c3)ccc2N1` [GRB092]: the concentration giving a half-maximal response (EC50) in data set [2] stood at 13.8 µM. In data set [3], the dissociation constant Kd (as a rule, the equilibrium constant for the complex coming apart) stood at 0.527 ± 0.367 µM.

Consider `Cc1ccc(NC(=O)Nc2ccc3c(c2)CC(=O)N3)c(C)c1` [GRB093], for which, in data set [2], the EC50 came to 15.5 µM.

On to `COC(=O)c1cccc(NC(=O)Nc2ccc3c(c2)CC(=O)N3)c1` [GRB094], for which, in data set [2], the half-maximal effective concentration (EC50) came to 23 µM.

`O=C1Cc2cc(NC(=S)Nc3cccc(Cl)c3)ccc2N1` [GRB095]: in data set [2], the EC50 stood at 50.9 µM.

With `O=C(Nc1cc(Cl)cc(Cl)c1)Nc1ccc2[nH]c(=O)oc2c1` [GRB101], in data set [2], the EC50 worked out at 13 µM.

Turning to `O=C(Nc1cc(F)cc(F)c1)Nc1ccc2[nH]c(=O)oc2c1` [GRB102], in data set [2], the concentration giving a half-maximal response (EC50) was over 100 µM.

As to `Cc1ccc(NC(=O)Nc2ccc3[nH]c(=O)oc3c2)cc1` [GRB104], in data set [2], the EC50 was 3.1 µM.

With `COc1cccc(NC(=O)Nc2ccc3[nH]c(=O)oc3c2)c1` [GRB105], the EC50 in data set [2] is 9.7 µM.

Regarding `O=c1[nH]c2ccc(NC(=S)Nc3ccc(Cl)c(Cl)c3)cc2o1` [GRB152], the IC50 – broadly, the midpoint of a concentration-inhibition curve – at 72 h is 12.1 ± 1.5 µM in data set [4] and 1.5 ± 0.5 µM in data set [5].

In turn, `COc1ccc(Cl)cc1NC(=O)Nc1ccc2[nH]c(=O)oc2c1` [GRB161] registered an IC50 at 72 h in data set [5] of over 120 µM.
